Experimental data reported in patent EP0944629B1, “BIARYL-PYRIDOQUINAZOLINONE DERIVATIVES AS ANTI-CANCER AGENTS” (American Cyanamid Company, priority 1996, dated 1998).
In brackets after ≈: the same amount, converted by molar mass. Where two headings read alike, the source gives them in different places.

How the values were obtained:
[1] = system: P388; experiment: Murine P388 Leukemia; type: in vivo, CD2F1 mice
Description: (§1) CD2F1 mice are injected i.p. with 1 x 10^6 tumor cells on Day 0 of the test. Drugs are administered i.p. on Days 1, 5, and 9 after the tumor implantation. Positive drug response is indicated by a more than 25% increase in the mean life span (% ILS), relative to placebo treated controls. Drugs are considered to be toxic when the mean life span of the drug treated animals is more than 15% shorter than placebo treated controls.

[2] = system: A2780 DDP; experiment: two cell line test procedure (sulforhodamine B cytotoxicity), A2780 DDP; type: cell-based; settings: A2780 DDP (cisplatin-resistant) cells, 48 hours exposure
Description: (§2) A2780 S and A2780 DDP cells [Biochemical and Molecular Properties of Cisplatin-resistant A2780 Cells Grown in Folinic Acid; Y. Lu, J. Hnan, and K. Scanlon, J. Biol. Chem., 263, 4891-4894, 1988.] are grown in RPMI 1640 medium containing 5% fetal calf serum, 50 µg/ml streptomycin, 50 units/ml penicillin, 50 µg/ml gentamycin, 0.03% L-glutamine, 1 nM estradiol, 1 nM testosterone, 5 µg/mlinsulin, 5 µg/ml transferrin, and 5 ng/ml selenous acid, at 37°C, in a humidified atmosphere, containing 5% CO2. Experiments are done in the same media.
(§3) Cells are plated at the concentration of 5 x 10^4/ml on Day 0 of the experiment. On Day one control cells are fixed with trichloroacetic acid and 5 ten fold dilutions of tested compounds are added, in duplicates, to the remaining cells. On Day 3 (48 hours exposure to drugs) all cells are fixed with trichloroacetic acid, stained with 0.4% sulforhodamine B, and absorbency is read at 520 nm. The IC50s (concentration causing 50% inhibition) are determined for each drug.

[3] = system: A2780 S; experiment: two cell line test procedure (sulforhodamine B cytotoxicity), A2780 S; type: cell-based; settings: A2780 S cells, 48 hours exposure
Description: as §2, §3

[4] = system: COLON 26; experiment: Murine Colon 26 Advanced, Metastatic Tumor; type: in vivo, CD2F1 mice
Description: as §1, with “with 5” for “with 1”, “x 10^5” for “x 10^6”, “test. […]” for “test. Drugs are administered i.p. on Days 1, 5, and 9 after the tumor implantation.”, “be toxic,” for “be toxic”

[5] = system: LS174T; settings: days 1,5,9
Description: Human tumor fragments are implanted s.c. in athymic nude mice. Tumors are allowed to grow until they attain a mass of 100-150 mgs. […] Drugs are administered i.p. at Days 1, 5, and 9. Each mouse tumor mass is determined every 7 days, until Day 28, using caliper measurements of tumor length and width. Mean tumor mass for each group of animals is then calculated and the relative tumor growth determined. The relative tumor growth is defined as a ratio of the tumor mass on a given day to a tumor mass on Day 0. Calculation of % T/C (the relative tumor growth of treated group divided by the relative tumor growth of placebo group, multiplied by 100) is made for each day of measurement. A positive drug response is indicated by a % T/C value below 60%, and a p value in the Student t-test of less than 0.05. More than 20% deaths in the group related to the drug administration indicates toxicity.

[6] = system: P388; settings: reported by Denny et al.; cited from earlier work
[7] = reported by Denny et al.; cited from earlier work
[8] = reported by Denny et al.; cited from earlier work; remark: listed apart in the source
[9] = P388, 50 mg/kg i.p., days 1,5,9
[10] = P388, 100 mg/kg i.p., days 1,5,9
[11] = P388, 200 mg/kg i.p., days 1,5,9
[12] = COLON 26, 200 mg/kg i.p., days 5,9,13

With `Cl.Cl.Cl.Nc1cccc(-c2ccc3nc4c(C(=O)NCCNCCO)cccn4c(=O)c3c2)c1` [Example 24, 11H-Pyrido [2,1-b]quinazoline-6-carboxamide, 2-(3-aminophenyl)-N-[2-[(2-hydroxyethyl)amino]ethyl]-11-oxo-trihydrochloride] the “% ILS” value ([1]; P388, 25 mg/kg i.p., days 1,5,9) was “+12%”, the “% ILS” value [1, 9] was “+4%” and the “% ILS” value [1, 10] was “+4%”. For the same compound, the “% ILS” value [1, 11] was 0%, the “IC50 (µg/ml) A2780 DDP” value [2] was 2.10 µg/mL and the “IC50 (µg/ml) A2780 S” value [3] was 0.60 µg/mL. The “% ILS” value [4, 12] was “+24%” and the “% ILS” value ([4]; COLON 26, 300 mg/kg i.p., days 5,9,13) was -24%.

For `CN(C)CCNC(=O)c1cccn2c(=O)c3cc(-c4cccc(N(C)C)c4)ccc3nc12` [Example 21, 11H-Pyrido[2,1-b]quinazoline-6-carboxamide, N-[2-(dimethylamino)ethyl]-2-[3-(dimethylamino)phenyl]-11-oxo], the “IC50 (µg/ml) A2780 DDP” value [2] was 0.50 µg/mL (≈ 1.16 µM) and the “IC50 (µg/ml) A2780 S” value [3] was 0.20 µg/mL (≈ 0.466 µM).

In the case of `Cl.Cl.O=C(NCCNCCO)c1cccn2c(=O)c3cc(-c4ccccc4)ccc3nc12` [Example 26, 11H-pyrido[2,1-b]quinazoline-6-carboxamide, N-[2-[(2-hydroxyethyl)amino]-ethyl]-11-oxo-2-phenyl, dihydrochloride], the “IC50 (µg/ml) A2780 DDP” value [2] is reported as 3.50 µg/mL and the “IC50 (µg/ml) A2780 S” value [3] is reported as 0.80 µg/mL.

For `CN(C)CCNC(=O)c1cccn2c(=O)c3cc(-c4ccccc4-c4ccccc4)ccc3nc12` [Example 14, 11H-Pyrido[2,1-b]quinazoline-6-carboxamide, 2-[1,1'biphenyl]-2-yl-N-[2-(dimethylamino)ethyl]-11-oxo], the “IC50 (µg/ml) A2780 DDP” value [2] was 4.80 µg/mL (≈ 10.4 µM) and the “IC50 (µg/ml) A2780 S” value [3] was 4.40 µg/mL (≈ 9.51 µM).

With `Cl.Cl.Cl.Nc1ccccc1-c1ccc2nc3c(C(=O)NCCNCCO)cccn3c(=O)c2c1` [Example 30, 11H-Pyrido[2,1-b]quinazoline-6-carboxamide, 2-(2-aminophenyl)-N-[2-[(2-hydroxyethyl)amino]ethyl]-11-oxo-trihydrochloride] the “IC50 (µg/ml) A2780 DDP” value [2] was 6.90 µg/mL and the “IC50 (µg/ml) A2780 S” value [3] was 4.80 µg/mL.

With `CN(C)CCNC(=O)c1cccn2c(=O)c3cc(-c4cc(C(F)(F)F)cc(C(F)(F)F)c4)ccc3nc12` [Example 20, 11H-Pyrido[2,1-b]quinazoline-6-carboxamide, 2-[3,5-bis(trifluoromethyl)phenyl]-N-[2-(dimethylamino)ethyl]-11-oxo] the “IC50 (µg/ml) A2780 DDP” value [2] was 3.00 µg/mL (≈ 5.74 µM) and the “IC50 (µg/ml) A2780 S” value [3] was 3.80 µg/mL (≈ 7.27 µM).

In the case of `CN(C)CCNC(=O)c1cccn2c(=O)c3ccc(-c4cccc(N)c4)cc3nc12` [Example 35, 11H-Pyrido[2,1-b]quinazoline-6-carboxamide, 3-(3-aminophenyl)-N-[2-(dimethylamino)ethyl]-11-oxo], the “IC50 (µg/ml) A2780 DDP” value [2] is reported as 0.40 µg/mL (≈ 0.996 µM) and the “IC50 (µg/ml) A2780 S” value [3] is reported as 0.50 µg/mL (≈ 1.25 µM).

In the case of `CN(C)CCNC(=O)c1cccn2c(=O)c3cc(-c4cccc(-c5ccccc5)c4)ccc3nc12` [Example 15, 11H-Pyrido[2,1-b]quinazoline-6-carboxamide, 2-[1,1'-biphenyl]-3-yl-N-[2-(dimethylamino)ethyl]-11-oxo], the “% ILS” value [1, 9] is reported as “+8%”, the “% ILS” value [1, 10] is reported as “+2%” and the “% ILS” value ([1]; P388, 200 mg/kg i.p., days 1,5) is reported as -40%. For the same compound, the “IC50 (µg/ml) A2780 DDP” value [2] was 0.80 µg/mL (≈ 1.73 µM) and the “IC50 (µg/ml) A2780 S” value [3] was 0.60 µg/mL (≈ 1.3 µM).

With `CC[C@]1(O)C[C@H]2CN(CCc3c([nH]c4ccccc34)[C@@](C(=O)OC)(c3cc4c(cc3OC)N(C=O)[C@H]3[C@@](O)(C(=O)OC)[C@H](OC(C)=O)[C@]5(CC)C=CCN6CC[C@]43[C@@H]65)C2)C1` [Vincristine, reference compound] the “% ILS” value ([1]; P388, 0.8 mg/kg i.p., days 1,5,9) was “+114%” and the “%T/C” value ([5]; 1.0 mg/kg i.p.) was 52 %T/C.

In the case of `CN(C)CCNC(=O)c1cccn2c(=O)c3cc(-c4cccc5ccccc45)ccc3nc12` [Example 17, 11H-pyrido[2,1-b)quinazoline-6-carboxamide, N-[2-(dimethylamino)ethyl]-2-(1-naphthalenyl)-11-oxo], the “IC50 (µg/ml) A2780 DDP” value [2] is reported as 4.70 µg/mL (≈ 10.8 µM) and the “IC50 (µg/ml) A2780 S” value [3] is reported as 4.60 µg/mL (≈ 10.5 µM).

In the case of `COc1cccc2c1C(=O)c1c(O)c3c(c(O)c1C2=O)C[C@@](O)(C(=O)CO)C[C@@H]3O[C@H]1C[C@H](N)[C@H](O)[C@H](C)O1` [Adriamycin, reference compound], the “% ILS” value ([4]; COLON 26, 4 mg/kg i.p., days 5,9,14) is reported as “+71%”.

With `COc1ccc(-c2ccc3nc4c(C(=O)NCCN(C)C)cccn4c(=O)c3c2)cc1` [Example 19, 11H-Pyrido[2,1-b]quinazoline-6-carboxamide, N-[2-(dimethylamino)ethyl]-2-(4-methoxyphenyl)-11-oxo] the “% ILS” value [1, 9] was -9%, the “% ILS” value [1, 10] was “+4%” and the “% ILS” value [1, 11] was “+6%”. The “IC50 (µg/ml) A2780 DDP” value [2] was 3.40 µg/mL (≈ 8.16 µM) and the “IC50 (µg/ml) A2780 S” value [3] was 4.30 µg/mL (≈ 10.3 µM).

For `CN(C)CCNC(=O)c1cccn2c(=O)c3cc(-c4cccc(C(F)(F)F)c4)ccc3nc12` [Example 18], the “IC50 (µg/ml) A2780 DDP” value [2] was 4.20 µg/mL (≈ 9.24 µM) and the “IC50 (µg/ml) A2780 S” value [3] was 1.10 µg/mL (≈ 2.42 µM).

For `CN(C)CCNC(=O)c1cccn2c(=O)c3cc(-c4cccc(N)c4)ccc3nc12` [Example 13, 11H-Pyrido[2,1-b]quinazoline-6-carboxamide, 2-(3-aminophenyl)-N-[2-(dimethyl-amino)ethyl]-11-oxo], the “% ILS” value [1, 9] was “+2%”, the “% ILS” value [1, 10] was “+20%” and the “% ILS” value [1, 11] was “+57%”. The “IC50 (µg/ml) A2780 DDP” value [2] was 3.70 µg/mL (≈ 9.22 µM), the “IC50 (µg/ml) A2780 S” value [3] was 0.40 µg/mL (≈ 0.996 µM) and the “%T/C” value ([5]; 250 mg/kg i.p.) was 59 %T/C. The “%T/C” value ([5]; 300 mg/kg i.p.) was 44 %T/C, the “% ILS” value ([4]; COLON 26, 100 mg/kg i.p., days 5,9,13) was “+18%” and the “% ILS” value [4, 12] was “+24%”. The “% ILS” value ([4]; COLON 26, 250 mg/kg i.p., days 5,9,13) was “+35%”.

In the case of `CN(C)CCNC(=O)c1cccn2c(=O)c3ccccc3nc12` [I, N-[2-(dimethylamino)ethyl]-11-oxo-11H-pyrido[2,1-b]quinalzoline-6-carboxamide], the “activity in a P388 mouse model” value [6] is given as “inactive”, the in vitro activity [7] is given as “some in vitro activity” and the mutagenic activity [8] is given as “mutagenic activity”.

For `CN(C)CCNC(=O)c1cccn2c(=O)c3cc(-c4cc5ccccc5c5ccccc45)ccc3nc12` [Example 16], the “IC50 (µg/ml) A2780 DDP” value [2] was 5.30 µg/mL (≈ 10.9 µM) and the “IC50 (µg/ml) A2780 S” value [3] was 4.10 µg/mL (≈ 8.43 µM).
